Tests used:
[1] = target: T1, HiBit-KRAS^G12C (Homo sapiens, UniProt P01116, G12C); test: HiBit degradation assay in MiaPaCa-2 HiBit-KRas^G12C cells; assay type: cell-based; conditions: 24 hours; for DC50: read-out: KRas^G12C-HiBiT (MiaPaCa; 0.1% DMSO) IC50; for Dmax: maximum degradation
Procedure, shortened: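 DC50 and Dmax come from 4-parameter fits of DMSO-normalized HiBit luminescence after 24 hours' exposure at 37° C to 10 μM–20 nM compound in 0.1% or 0.5% DMSO. Cells: MiaPaCa-2 carrying one endogenously HiBit-tagged KRAS^G12C allele; concentrations causing ≥50% […] viability loss (alamar blue) excluded.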

[2] = target: T1, HiBit-KRAS^G12C; test: HiBit degradation assay in SW1573 HiBit-KRas^G12C cells; assay type: cell-based; design: expressed in transfected cells; host or cells: SW1573 (clone E6), modified pcDNA3.1 vector, TK promoter; conditions: 24 hours; for DC50: read-out: KRas^G12C-HIBit (SW1573; 0.1% DMSO) DC50*
Procedure, shortened: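 HiBit-KRAS G12C degradation was measured after a 24 h compound exposure (titrated 10 μM–20 nM) in engineered SW1573 cells. Lytic HiBit luminescence, expressed relative to DMSO controls, yielded DC50 and Dmax from 4-parameter fits. Concentrations causing ≥50% loss in alamar blue viability were omitted as cytotoxic.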

[3] = MiaPaCa-2 HiBit-KRas^G12C cells, 0.1% DMSO
[4] = SW1573, SW1573 HiBit-KRas^G12C, 0.1% DMSO, read-out: KRas^G12C-HiBit (SW1573; 0.1% DMSO) Dmax**
[5] = SW1573 HiBit-KRas^G12C, 0.1% DMSO
[6] = MIA PaCa-2, read-out: KRas^G12C-HiBiT (MiaPaCa; 0.1% DMSO) DMax, MiaPaCa-2 HiBit-KRas^G12C cells, 0.1% DMSO
[7] = SW1573, read-out: KRas^G12C-HiBit (SW1573; 0.1% DMSO) Dmax**, SW1573 HiBit-KRas^G12C, 0.1% DMSO

T1 sequence (P01116 1-186 isoform P01116-2 G12C limits assumed): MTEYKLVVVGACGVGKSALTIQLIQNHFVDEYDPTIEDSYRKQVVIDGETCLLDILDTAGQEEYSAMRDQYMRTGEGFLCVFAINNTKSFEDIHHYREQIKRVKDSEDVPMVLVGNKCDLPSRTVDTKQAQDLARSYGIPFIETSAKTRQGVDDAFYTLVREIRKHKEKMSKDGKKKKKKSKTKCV

C=CC(=O)N1CCN(c2nc(O[C@H](C)CN3CCC(OCCOCC(=O)N[C@H](C(=O)N4C[C@H](O)C[C@H]4C(=O)N[C@@H](C)c4ccc(-c5scnc5C)cc4)C(C)(C)C)CC3)nc3c(F)c(-c4cc(O)cc5ccccc45)c(Cl)cc23)C[C@H]1C [Compound 45, (2S,4R)-1-[(2S)-2-{2-[2-({1-[(2R)-2-{[6-chloro-8-fluoro-7-(3-hydroxynaphthalen-1-yl)-4-[(3R)-3-methyl-4-(prop-2-enoyl)piperazin-1-yl]quinazolin-2-yl]oxy}propyl]piperidin-4-yl}oxy)ethoxy]acetamido}-3,3-dimethylbutanoyl]-4-hydroxy-N-[(1S)-1-[4-(4-methyl-1,3-thiazol-5-yl)phenyl]ethyl]pyrrolidine-2-carboxamide]
DC50 [1, 3]: > 1 µM | Dmax [2, 4]: < 35% | DC50 [2, 5]: 0.1 to 1 µM

C=CC(=O)N1CCN(c2nc(O[C@H](C)CN3CC(OC4CCN(CC(=O)N[C@H](C(=O)N5C[C@H](O)C[C@H]5C(=O)N[C@@H](C)c5ccc(-c6scnc6C)cc5)C(C)(C)C)CC4)C3)nc3c(F)c(-c4cc(O)cc5ccccc45)c(Cl)cc23)CC1 [Compound 46, (2S,4R)-1-[(2S)-2-{2-[4-({1-[(2R)-2-{[6-chloro-8-fluoro-7-(3-hydroxynaphthalen-1-yl)-4-[4-(prop-2-enoyl)piperazin-1-yl]quinazolin-2-yl]oxy}propyl]azetidin-3-yl}oxy)piperidin-1-yl]acetamido}-3,3-dimethylbutanoyl]-4-hydroxy-N-[(1S)-1-[4-(4-methyl-1,3-thiazol-5-yl)phenyl]ethyl]pyrrolidine-2-carboxamide]
Dmax [1, 6]: < 35% | Dmax ([1]; MIA PaCa-2, read-out: KRas^G12C-HiBiT (MiaPaCa; 0.5% DMSO) DMax, MiaPaCa-2 HiBit-KRas^G12C cells, 0.5% DMSO): 35 to 70% | Dmax ([2]; SW1573, read-out: KRas^G12C-HiBiT (SW1573; 0.5% DMSO) Dmax**, SW1573 HiBit-KRas^G12C, 0.5% DMSO): 35 to 70% | Dmax [2, 7]: 35 to 70% | DC50 [2, 5]: 0.1 to 1 µM

C=CC(=O)N1CCN(c2nc(O[C@H](C)CN3CCC(CCCOC4CN(CC(=O)N[C@H](C(=O)N5C[C@H](O)C[C@H]5C(=O)N[C@@H](C)c5ccc(-c6scnc6C)cc5)C(C)(C)C)C4)CC3)nc3c(F)c(-c4cc(O)cc5ccccc45)c(Cl)cc23)CC1 [Compound 48, (2S,4R)-1-[(2S)-2-{2-[3-(3-{1-[(2R)-2-{[6-chloro-8-fluoro-7-(3-hydroxynaphthalen-1-yl)-4-[4-(prop-2-enoyl)piperazin-1-yl]quinazolin-2-yl]oxy}propyl]piperidin-4-yl}propoxy)azetidin-1-yl]acetamido}-3,3-dimethylbutanoyl]-4-hydroxy-N-[(1S)-1-[4-(4-methyl-1,3-thiazol-5-yl)phenyl]ethyl]pyrrolidine-2-carboxamide]
DC50 [1, 3]: > 1 µM | Dmax [2, 7]: < 35% | DC50 [2, 5]: 0.1 to 1 µM

C=CC(=O)N1CCN(c2nc(O[C@H](C)CN3CCN(CCCN4CCN(CC(=O)N[C@H](C(=O)N5C[C@H](O)C[C@H]5C(=O)N[C@@H](C)c5ccc(-c6scnc6C)cc5)C(C)(C)C)CC4)CC3)nc3c(F)c(-c4cc(O)cc5ccccc45)c(Cl)cc23)CC1 [Compound 49, (2S,4R)-1-[(2S)-2-{2-[4-(3-{4-[(2R)-2-{[6-chloro-8-fluoro-7-(3-hydroxynaphthalen-1-yl)-4-[4-(prop-2-enoyl)piperazin-1-yl]quinazolin-2-yl]oxy}propyl]piperazin-1-yl}propyl)piperazin-1-yl]acetamido}-3,3-dimethylbutanoyl]-4-hydroxy-N-[(1S)-1-[4-(4-methyl-1,3-thiazol-5-yl)phenyl]ethyl]pyrrolidine-2-carboxamide]
DC50 [1, 3]: > 1 µM | Dmax [2, 7]: < 35% | DC50 [2, 5]: 0.1 to 1 µM

C=CC(=O)N1CCN(c2nc(O[C@H](C)CN3CCC(C4CCN(CC(=O)N[C@H](C(=O)N5C[C@H](O)C[C@H]5C(=O)N[C@@H](C)c5ccc(-c6scnc6C)cc5)C(C)(C)C)CC4)CC3)nc3c(F)c(-c4cc(O)cc5ccccc45)c(Cl)cc23)CC1 [Compound 50, (2S,4R)-1-[(2S)-2-(2-{1′-[(2R)-2-{[6-chloro-8-fluoro-7-(3-hydroxynaphthalen-1-yl)-4-[4-(prop-2-enoyl)piperazin-1-yl]quinazolin-2-yl]oxy}propyl]-[4,4′-bipiperidin]-1-yl}acetamido)-3,3-dimethylbutanoyl]-4-hydroxy-N-[(1S)-1-[4-(4-methyl-1,3-thiazol-5-yl)phenyl]ethyl]pyrrolidine-2-carboxamide]
Dmax [1, 6]: 35 to 70% | Dmax [2, 7]: 35 to 70% | DC50 [2, 5]: > 1 µM

C=CC(=O)N1CCN(c2nc(OCCN3CCN(CCOCC(=O)N[C@H](C(=O)N4C[C@H](O)C[C@H]4C(=O)N[C@@H](C)c4ccc(-c5scnc5C)cc4)C(C)(C)C)CC3)nc3c(F)c(-c4cc(O)cc5ccccc45)c(Cl)cc23)CC1 [Compound 51, (2S,4R)-1-[(2S)-2-(2-{2-[4-(2-{[6-chloro-8-fluoro-7-(3-hydroxynaphthalen-1-yl)-4-[4-(prop-2-enoyl)piperazin-1-yl]quinazolin-2-yl]oxy}ethyl)piperazin-1-yl]ethoxy}acetamido)-3,3-dimethylbutanoyl]-4-hydroxy-N-[(1S)-1-[4-(4-methyl-1,3-thiazol-5-yl)phenyl]ethyl]pyrrolidine-2-carboxamide]
Dmax ([1]; MIA PaCa-2, MiaPaCa-2 HiBit-KRas^G12C cells, 0.1% DMSO, read-out: KRas^G12C-HiBiT (MiaPaCa; 0.1% DMSO) DMax): < 35% | DC50 [1, 3]: 0.1 to 1 µM | Dmax [2, 4]: < 35% | DC50 [2, 5]: > 1 µM

C=CC(=O)N1CCN(c2nc(O[C@H](C)CN3CCC(OCCOC4CN(CC(=O)N[C@H](C(=O)N5C[C@H](O)C[C@H]5C(=O)N[C@@H](C)c5ccc(-c6scnc6C)cc5)C(C)(C)C)C4)CC3)nc3c(F)c(-c4cc(O)cc5ccccc45)c(Cl)cc23)CC1 [Compound 53, (2S,4R)-1-[(2S)-2-(2-{3-[2-({1-[(2R)-2-{[6-chloro-8-fluoro-7-(3-hydroxynaphthalen-1-yl)-4-[4-(prop-2-enoyl)piperazin-1-yl]quinazolin-2-yl]oxy}propyl]piperidin-4-yl}oxy)ethoxy]azetidin-1-yl}acetamido)-3,3-dimethylbutanoyl]-4-hydroxy-N-[(1S)-1-[4-(4-methyl-1,3-thiazol-5-yl)phenyl]ethyl]pyrrolidine-2-carboxamide]
DC50 [1, 3]: > 1 µM | Dmax [2, 7]: < 35% | DC50 [2, 5]: 0.1 to 1 µM

C=CC(=O)N1CCN(c2nc(O[C@H](C)CN3CCC(OCCN4CCN(CC(=O)N[C@H](C(=O)N5C[C@H](O)C[C@H]5C(=O)N[C@@H](C)c5ccc(-c6scnc6C)cc5)C(C)(C)C)CC4)CC3)nc3c(F)c(-c4cc(O)cc5ccccc45)c(Cl)cc23)CC1 [Compound 54, (2S,4R)-1-[(2S)-2-(2-{4-[2-({1-[(2R)-2-{[6-chloro-8-fluoro-7-(3-hydroxynaphthalen-1-yl)-4-[4-(prop-2-enoyl)piperazin-1-yl]quinazolin-2-yl]oxy}propyl]piperidin-4-yl}oxy)ethyl]piperazin-1-yl}acetamido)-3,3-dimethylbutanoyl]-4-hydroxy-N-[(1S)-1-[4-(4-methyl-1,3-thiazol-5-yl)phenyl]ethyl]pyrrolidine-2-carboxamide]
DC50 [1, 3]: > 1 µM | DC50 [2, 5]: < 0.1 µM

C=CC(=O)N1CCN(c2nc(O[C@H](C)CN3CCN(CCOC4CCN(CC(=O)N[C@H](C(=O)N5C[C@H](O)C[C@H]5C(=O)N[C@@H](C)c5ccc(-c6scnc6C)cc5)C(C)(C)C)CC4)CC3)nc3c(F)c(-c4cc(O)cc5ccccc45)c(Cl)cc23)CC1 [Compound 55, (2S,4R)-1-[(2S)-2-{2-[4-(2-{4-[(2R)-2-{[6-chloro-8-fluoro-7-(3-hydroxynaphthalen-1-yl)-4-[4-(prop-2-enoyl)piperazin-1-yl]quinazolin-2-yl]oxy}propyl]piperazin-1-yl}ethoxy)piperidin-1-yl]acetamido}-3,3-dimethylbutanoyl]-4-hydroxy-N-[(1S)-1-[4-(4-methyl-1,3-thiazol-5-yl)phenyl]ethyl]pyrrolidine-2-carboxamide]
DC50 [1, 3]: > 1 µM | Dmax [2, 7]: < 35% | DC50 [2, 5]: 0.1 to 1 µM

C=CC(=O)N1CCN(c2nc(O[C@H](C)CN3CCN(CCCOC4CN(CC(=O)N[C@H](C(=O)N5C[C@H](O)C[C@H]5C(=O)N[C@@H](C)c5ccc(-c6scnc6C)cc5)C(C)(C)C)C4)CC3)nc3c(F)c(-c4cc(O)cc5ccccc45)c(Cl)cc23)CC1 [Compound 57, (2S,4R)-1-[(2S)-2-{2-[3-(3-{4-[(2R)-2-{[6-chloro-8-fluoro-7-(3-hydroxynaphthalen-1-yl)-4-[4-(prop-2-enoyl)piperazin-1-yl]quinazolin-2-yl]oxy}propyl]piperazin-1-yl}propoxy)azetidin-1-yl]acetamido}-3,3-dimethylbutanoyl]-4-hydroxy-N-[(1S)-1-[4-(4-methyl-1,3-thiazol-5-yl)phenyl]ethyl]pyrrolidine-2-carboxamide]
DC50 [1, 3]: > 1 µM | Dmax [2, 7]: < 35% | DC50 [2, 5]: 0.1 to 1 µM

Reference: patent publication US20220370416A1, “COMPOUNDS AND METHODS FOR TARGETED DEGRADATION OF KRAS” (Arvinas Operations, Inc., priority 2020, published 2022)
